Measurements as given in ChEMBL document CHEMBL1255419, “Pharmacokinetic-pharmacodynamic assessment of faropenem in a lethal murine Bacillus anthracis inhalation postexposure prophylaxis model” (Antimicrob Agents Chemother, 2010).
≈ marks a conversion by molar mass, not a printed value.

Tests used:
Assay type in all cases: functional
Bacillus anthracis [1] = experiment: microbe, parasite or virus in culture
Bacillus anthracis [2] = experiment: microbe, parasite or virus in culture; remark: listed apart in the source
Bacillus anthracis [3] = experiment: microbe, parasite or virus in culture; remark: listed apart in the source
Bacillus anthracis [4] = experiment: Antibacterial activity against beta-lactamase Bla1 and Bla2-producing Bacillus anthracis Sterne by broth microdilution method
Bacillus anthracis [5] = experiment: microbe, parasite or virus in culture; remark: listed apart in the source
Bacillus anthracis [6] = experiment: microbe, parasite or virus in culture; remark: listed apart in the source
Bacillus anthracis [7] = experiment: microbe, parasite or virus in culture; remark: listed apart in the source
Bacillus anthracis [8] = experiment: microbe, parasite or virus in culture; remark: listed apart in the source
Bacillus anthracis [9] = experiment: microbe, parasite or virus in culture; remark: listed apart in the source
Bacillus anthracis [10] = experiment: microbe, parasite or virus in culture; remark: listed apart in the source
Bacillus anthracis [11] = experiment: microbe, parasite or virus in culture; remark: listed apart in the source
Bacillus anthracis [12] = experiment: microbe, parasite or virus in culture; remark: listed apart in the source
Bacillus anthracis [13] = experiment: microbe, parasite or virus in culture; remark: listed apart in the source
Bacillus anthracis [14] = experiment: microbe, parasite or virus in culture; remark: listed apart in the source
Bacillus anthracis [15] = experiment: microbe, parasite or virus in culture; remark: listed apart in the source
Bacillus anthracis [16] = experiment: microbe, parasite or virus in culture; remark: listed apart in the source
Bacillus anthracis [17] = experiment: microbe, parasite or virus in culture; remark: listed apart in the source
Bacillus anthracis [18] = experiment: microbe, parasite or virus in culture; remark: listed apart in the source
Bacillus anthracis [19] = experiment: microbe, parasite or virus in culture; remark: listed apart in the source
Bacillus anthracis [20] = experiment: microbe, parasite or virus in culture; remark: listed apart in the source
Bacillus anthracis [21] = experiment: microbe, parasite or virus in culture; remark: listed apart in the source
Bacillus anthracis [22] = experiment: microbe, parasite or virus in culture; remark: listed apart in the source
Bacillus anthracis [23] = experiment: microbe, parasite or virus in culture; remark: listed apart in the source
Bacillus anthracis [24] = experiment: microbe, parasite or virus in culture; remark: listed apart in the source
Bacillus anthracis [25] = experiment: microbe, parasite or virus in culture; remark: listed apart in the source
Bacillus anthracis [26] = experiment: microbe, parasite or virus in culture; remark: listed apart in the source
Bacillus anthracis [27] = experiment: microbe, parasite or virus in culture; remark: listed apart in the source
Bacillus anthracis [28] = experiment: microbe, parasite or virus in culture; remark: listed apart in the source
Bacillus anthracis [29] = experiment: microbe, parasite or virus in culture; remark: listed apart in the source

## C[C@@H](O)[C@H]1C(=O)N2C(C(=O)O)=C(S[C@@H]3CN[C@H](C(=O)N(C)C)C3)[C@H](C)[C@H]12 [MEROPENEM]
Bacillus anthracis [1]
  MIC: 0.5 µg/mL (≈ 1.3 µM)
Bacillus anthracis [2]
  MIC: 0.06 µg/mL (≈ 0.156 µM)
Bacillus anthracis [3]
  MIC: 0.12 µg/mL (≈ 0.313 µM)
Bacillus anthracis [4]
  MIC: ≤ 0.06 µg/mL
Bacillus anthracis [5]
  MIC: 32 µg/mL (≈ 83.4 µM)
Bacillus anthracis [6]
  MIC: ≤ 0.06 µg/mL
Bacillus anthracis [7]
  MIC: < 0.06 µg/mL
Bacillus anthracis [8]
  MIC: 4 µg/mL (≈ 10.4 µM)
Bacillus anthracis [9]
  MIC: 0.12 µg/mL (≈ 0.313 µM)
Bacillus anthracis [10]
  MIC: 0.25 µg/mL (≈ 0.652 µM)
Bacillus anthracis [11]
  MIC: 0.12 µg/mL (≈ 0.313 µM)
Bacillus anthracis [12]
  MIC: 0.12 µg/mL (≈ 0.313 µM)
Bacillus anthracis [13]
  MIC: 0.12 µg/mL (≈ 0.313 µM)
Bacillus anthracis [14]
  MIC: 0.12 µg/mL (≈ 0.313 µM)
Bacillus anthracis [15]
  MIC: 0.12 µg/mL (≈ 0.313 µM)
Bacillus anthracis [16]
  MIC: 0.12 µg/mL (≈ 0.313 µM)
Bacillus anthracis [17]
  MIC: 0.12 µg/mL (≈ 0.313 µM)
Bacillus anthracis [18]
  MIC: 0.12 µg/mL (≈ 0.313 µM)
Bacillus anthracis [19]
  MIC: 0.25 µg/mL (≈ 0.652 µM)
Bacillus anthracis [20]
  MIC: 8 µg/mL (≈ 20.9 µM)
Bacillus anthracis [21]
  MIC: 0.12 µg/mL (≈ 0.313 µM)
Bacillus anthracis [22]
  MIC: 0.25 µg/mL (≈ 0.652 µM)
Bacillus anthracis [23]
  MIC: 0.25 µg/mL (≈ 0.652 µM)
Bacillus anthracis [24]
  MIC: 0.25 µg/mL (≈ 0.652 µM)
Bacillus anthracis [25]
  MIC: 0.25 µg/mL (≈ 0.652 µM)
Bacillus anthracis [26]
  MIC: 0.12 µg/mL (≈ 0.313 µM)
Bacillus anthracis [27]
  MIC: 0.12 µg/mL (≈ 0.313 µM)
Bacillus anthracis [28]
  MIC: 0.25 µg/mL (≈ 0.652 µM)
Bacillus anthracis [29]
  MIC: 0.12 µg/mL (≈ 0.313 µM)

## CC1(C)S[C@@H]2[C@H](NC(=O)Cc3ccccc3)C(=O)N2[C@H]1C(=O)O [PENICILLIN G]
Bacillus anthracis [1]
  MIC: 2 µg/mL (≈ 5.98 µM)
Bacillus anthracis [2]
  MIC: 4 µg/mL (≈ 12 µM)
Bacillus anthracis [3]
  MIC: 4 µg/mL (≈ 12 µM)
Bacillus anthracis [4]
  MIC: 4 µg/mL (≈ 12 µM)
Bacillus anthracis [5]
  MIC: 32 µg/mL (≈ 95.7 µM)
Bacillus anthracis [6]
  MIC: 1 µg/mL (≈ 2.99 µM)
Bacillus anthracis [7]
  MIC: 1 µg/mL (≈ 2.99 µM)
Bacillus anthracis [8]
  MIC: 8 µg/mL (≈ 23.9 µM)
Bacillus anthracis [9]
  MIC: 8 µg/mL (≈ 23.9 µM)
Bacillus anthracis [10]
  MIC: 2 µg/mL (≈ 5.98 µM)
Bacillus anthracis [11]
  MIC: 1 µg/mL (≈ 2.99 µM)
Bacillus anthracis [12]
  MIC: 2 µg/mL (≈ 5.98 µM)
Bacillus anthracis [13]
  MIC: 2 µg/mL (≈ 5.98 µM)
Bacillus anthracis [14]
  MIC: 1 µg/mL (≈ 2.99 µM)
Bacillus anthracis [15]
  MIC: 2 µg/mL (≈ 5.98 µM)
Bacillus anthracis [16]
  MIC: 2 µg/mL (≈ 5.98 µM)
Bacillus anthracis [17]
  MIC: 1 µg/mL (≈ 2.99 µM)
Bacillus anthracis [18]
  MIC: 1 µg/mL (≈ 2.99 µM)
Bacillus anthracis [19]
  MIC: 2 µg/mL (≈ 5.98 µM)
Bacillus anthracis [20]
  MIC: 2 µg/mL (≈ 5.98 µM)
Bacillus anthracis [21]
  MIC: 2 µg/mL (≈ 5.98 µM)
Bacillus anthracis [22]
  MIC: 1 µg/mL (≈ 2.99 µM)
Bacillus anthracis [23]
  MIC: 8 µg/mL (≈ 23.9 µM)
Bacillus anthracis [24]
  MIC: 4 µg/mL (≈ 12 µM)
Bacillus anthracis [25]
  MIC: 2 µg/mL (≈ 5.98 µM)
Bacillus anthracis [26]
  MIC: 4 µg/mL (≈ 12 µM)
Bacillus anthracis [27]
  MIC: 4 µg/mL (≈ 12 µM)
Bacillus anthracis [28]
  MIC: 4 µg/mL (≈ 12 µM)
Bacillus anthracis [29]
  MIC: 2 µg/mL (≈ 5.98 µM)

## CN(C)[C@@H]1C(O)=C(C(N)=O)C(=O)[C@@]2(O)C(O)=C3C(=O)c4c(O)cccc4[C@@](C)(O)[C@H]3C[C@@H]12 [TETRACYCLINE]
Bacillus anthracis [1]
  MIC: ≤ 0.06 µg/mL
Bacillus anthracis [2]
  MIC: ≤ 0.06 µg/mL
Bacillus anthracis [3]
  MIC: ≤ 0.06 µg/mL
Bacillus anthracis [4]
  MIC: ≤ 0.06 µg/mL
Bacillus anthracis [5]
  MIC: ≤ 0.06 µg/mL
Bacillus anthracis [6]
  MIC: ≤ 0.06 µg/mL
Bacillus anthracis [7]
  MIC: ≤ 0.06 µg/mL
Bacillus anthracis [8]
  MIC: ≤ 0.06 µg/mL
Bacillus anthracis [9]
  MIC: ≤ 0.06 µg/mL
Bacillus anthracis [10]
  MIC: ≤ 0.06 µg/mL
Bacillus anthracis [11]
  MIC: ≤ 0.06 µg/mL
Bacillus anthracis [12]
  MIC: ≤ 0.06 µg/mL
Bacillus anthracis [13]
  MIC: ≤ 0.06 µg/mL
Bacillus anthracis [14]
  MIC: ≤ 0.06 µg/mL
Bacillus anthracis [15]
  MIC: ≤ 0.06 µg/mL
Bacillus anthracis [16]
  MIC: ≤ 0.06 µg/mL
Bacillus anthracis [17]
  MIC: ≤ 0.06 µg/mL
Bacillus anthracis [18]
  MIC: ≤ 0.06 µg/mL
Bacillus anthracis [19]
  MIC: ≤ 0.06 µg/mL
Bacillus anthracis [20]
  MIC: ≤ 0.06 µg/mL
Bacillus anthracis [21]
  MIC: ≤ 0.06 µg/mL
Bacillus anthracis [22]
  MIC: ≤ 0.06 µg/mL
Bacillus anthracis [23]
  MIC: ≤ 0.06 µg/mL
Bacillus anthracis [24]
  MIC: ≤ 0.06 µg/mL
Bacillus anthracis [25]
  MIC: ≤ 0.06 µg/mL
Bacillus anthracis [26]
  MIC: ≤ 0.06 µg/mL
Bacillus anthracis [27]
  MIC: ≤ 0.06 µg/mL
Bacillus anthracis [28]
  MIC: ≤ 0.06 µg/mL
Bacillus anthracis [29]
  MIC: ≤ 0.06 µg/mL
